This is an account of results in patent US5550119A, “Phosphono substituted tetrazole derivatives as ECE inhibitors” (Ciba-Geigy Corporation, priority 1995, dated 1996).

A word on the IC50: it is the point on the concentration scale where inhibition reaches its midpoint.

The structures appear in SMILES notation.

Experiment [1] deals with spontaneous hypertensive rats. Briefly: mean arterial pressure of spontaneous hypertensive rats using telemetry. Format: in vivo, rat. Conditions: continuous infusion of 5 mg/Kg/day for 13 days, no exogenous big ET-1.
For experiment [2], the target named is T1, porcine endothelin converting enzyme (Sus scrofa, UniProt A0A8W4FBH0).
T1 construct: partially purified from porcine primary aortic endothelial cells by DE52 anion exchange column; endogenous in cells; host or cells: porcine primary aortic endothelial cells
T1 sequence (A0A8W4FBH0 1-751): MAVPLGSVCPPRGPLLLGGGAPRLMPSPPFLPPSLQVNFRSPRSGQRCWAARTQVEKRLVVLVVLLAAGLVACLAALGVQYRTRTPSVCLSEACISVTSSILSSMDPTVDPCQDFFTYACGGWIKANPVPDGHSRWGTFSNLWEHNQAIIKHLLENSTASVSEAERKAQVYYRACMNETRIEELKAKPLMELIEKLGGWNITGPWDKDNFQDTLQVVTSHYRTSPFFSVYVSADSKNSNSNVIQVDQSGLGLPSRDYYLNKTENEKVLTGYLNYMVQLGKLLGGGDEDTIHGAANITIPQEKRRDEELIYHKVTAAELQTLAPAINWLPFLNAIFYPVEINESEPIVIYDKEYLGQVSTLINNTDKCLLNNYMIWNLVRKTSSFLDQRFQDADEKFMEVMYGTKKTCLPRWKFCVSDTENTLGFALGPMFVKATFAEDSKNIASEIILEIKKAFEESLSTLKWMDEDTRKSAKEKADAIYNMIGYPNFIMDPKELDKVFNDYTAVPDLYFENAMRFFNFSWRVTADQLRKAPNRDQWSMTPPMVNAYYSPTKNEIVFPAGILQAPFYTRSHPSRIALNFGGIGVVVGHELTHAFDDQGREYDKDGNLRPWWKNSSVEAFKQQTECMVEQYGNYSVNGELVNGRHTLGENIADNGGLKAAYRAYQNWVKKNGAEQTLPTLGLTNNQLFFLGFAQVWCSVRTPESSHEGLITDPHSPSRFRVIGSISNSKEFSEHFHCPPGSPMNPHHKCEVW
Kind of experiment: in vitro inhibition of porcine endothelin-converting enzyme (ECE). Format: biochemical. The following applies: partially purified from porcine primary aortic endothelial cells. The text has this: Endothelin converting enzyme (ECE) is partially purified from porcine primary aortic endothelial cells by DE52 anion exchange column chromatrography and its activity is quantified by radioimmunoassay as described in Anal. Biochem. 213, 434-436 (1993). The ECE inhibition can be determined as described in Biochem. Mol. Biol. Int. 31, (5), 861-867 (1993), by radioimmunoassay to measure ET-1 formed from big ET-1.

In experiment [3] the test system is big ET-1 induced pressor response. Briefly: inhibition of big ET-1 induced pressor response in conscious spontaneously hypertensive rats (SHR). The class given is in vivo. The following applies: continuous infusion of 5 mg/Kg/day; over 60 minutes; vs vehicle control. On the procedure: ECE inhibition can also be determined in vivo by measuring the inhibition big ET-1 induced pressor response in conscious spontaneously hypertensive rats (SHR), e.g. as described in Biochem. Biophys. Res. Communic. 204, 407-412 (1994).
Male SHR (16-18 weeks of age) are administered either test compound or vehicle (1M NaHCO3) via an osmotic minipump implated subcutaneously. On day 5 femoral arterial and venous catheters are placed in anesthetized rats for the measurement of MAP (mean arterial pressure) and for test compound administration, respectively. After a 48 hour recovery period, MAP is recorded (day 7) through the arterial catheter connected to a pressure transducer. Blood pressure and heart rate are allowed to stabilize for 30 minutes before ganglion blockade is performed using chlorisondamine ([…] i.v.). Approximately 15 minutes later, a bolus dose of big ET-1 (0.25 nmol/kg i.v.) is administered to both vehicle- and test compound treated rats. The change in blood pressure in response to big ET-1 is then compared between the two groups of rats at 1, 5, 10, 15, 30 and 60 min after dosing using a two-way ANOVA.

The next experiment concerns plasma ANF concentration. Kind of experiment: effect on rat plasma ANF concentration. Conditions: about 10 mg/kg p.o., in 10% ethanol/polyethylene glycol 400; ANF infused 450 ng/kg/min i.v. Format: in vivo, Male Sprague-Dawley rats. On the procedure: The effect of the compounds of the invention on rat plasma ANF concentration can be determined as follows:
Male Sprague-Dawley rats (275-390 g) are anesthetized with ketamine (150 mg/kg)/acepromazine (10%) and instrumented with catheters in the femoral artery and vein to obtain blood samples and infuse ANF, respectively. The rats are tethered with a swivel system and are allowed to recover for 24 hours before being studied in the conscious, unrestrained state.
In this assay, plasma ANF levels are determined in the presence and absence of NEP inhibition. On the day of study, all rats are infused continuously with ANF at 450 ng/kg/min. i.v. for the entire 5 hours of the experiment. Sixty minutes after beginning the infusion, blood samples for baseline ANF measurements are obtained (time 0) and the rats are then randomly divided into groups treated with the test compound or vehicle. Additional blood samples are taken 30, 60, 120, 180 and 240 minutes after administration of the test compound.
Plasma concentrations are determined by a specific radioimmunoassay. […] The supenatant is decanted and the pellets counted in a gamma counter. […] Plasma ANF levels are expressed as a percent of those measured in vehicle-treated animals which received ANF alone (450 ng/kg/min i.v.).

The test system of experiment [4] is DOCA-salt hypertensive rats. Briefly: antihypertensive effect in DOCA-salt hypertensive rats. The class given is in vivo, rat. Conditions: 10 mg/Kg p.o., in PEG 400. On the procedure:
The antihypertensive effect can be determined in desoxycorticosterone acetate (DOCA)-salt hypertensive rats.
DOCA-salt hypertensive rats (280-380 g) are prepared by the standard method. Rats underwent a unilateral nephrectomy and one week later are implanted with silastic pellets containing 100 mg/kg of DOCA. The rats are maintained on 1% NaCl/0.2% KCl drinking water for three to five weeks until sustained hypertension is established. The antihypertensive activity is evaluated at this time.
Two days before an experiment, the rats are anesthetized with methoxyflurane and instrumented with catheters in the femoral artery to measure arterial blood pressure. Forty-eight hours later, baseline arterial pressure and heart rate are recorded during a 1 hour period. The test compound or vehicle is then administered and the same cardiovascular parameters are monitored for an additional 5 hours.

For `O=P(O)(O)CN[C@@H](Cc1ccc(-c2ccccc2)cc1)c1nnn[nH]1` [(S)-[2-(Biphenyl-4-yl)-1-(1H-tetrazol-5-yl)-ethylamino]-methylphosphonic acid], the mean arterial pressure entry in experiment [1] is “sustained reduction in the mean arterial pressure”. Besides, the IC50 in experiment [2] is approximately 1100 nM. The “reduction of big ET-1 induced pressor response” value in experiment [3] is listed as “significant difference in reduction of big ET-1 induced pressor response”.
`O=P(CN[C@@H](Cc1ccc(-c2ccccc2)cc1)c1nnn[nH]1)(Oc1ccccc1)Oc1ccccc1`: the “plasma ANF levels” value with plasma ANF concentration is “significant increases in plasma ANF levels”. Besides, the blood pressure result in experiment [4] is recorded as “significant reduction in blood pressure”.
